Where a chain is given by its changes, count along the chain named. “And” between values parts separate entries of the source, which are not always exact repeats. Identical values can stand only once.
Experiments:
murine PGP-P127E = biological target: T1, murine PGP-P127E (Mus musculus, UniProt Q8CHP8, P127E); experiment: Isothermal titration calorimetry, PGP-P127E; type: binding; settings: ITC
T1 construct: His6 (N, cleaved yes); made in house; host or cells: Escherichia coli BL21 (DE3), pETM-11
T1 sequence (Q8CHP8 1-321 P127E): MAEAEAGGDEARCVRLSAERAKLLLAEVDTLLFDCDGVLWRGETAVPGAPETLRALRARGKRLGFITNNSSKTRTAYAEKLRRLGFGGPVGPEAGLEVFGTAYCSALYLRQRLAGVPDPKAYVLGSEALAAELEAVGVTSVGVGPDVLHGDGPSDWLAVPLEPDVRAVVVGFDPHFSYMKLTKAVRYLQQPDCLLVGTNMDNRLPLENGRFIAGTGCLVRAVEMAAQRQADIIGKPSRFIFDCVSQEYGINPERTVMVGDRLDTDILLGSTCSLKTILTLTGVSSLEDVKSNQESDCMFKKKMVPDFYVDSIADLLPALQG
Protocol: Purified murine PGP-WT or PGP-P127E was dialyzed overnight against ITC buffer (30 mM HEPES, 30 mM NaCl, 5 mM MgCl2, 1 mM tris(2-carboxyethyl)phosphine/TCEP; pH 7.5). All calorimetric measurements were performed at 25 °C on an ITC200 microcalorimeter (GE Healthcare). Experiments were conducted with a fixed concentration of 2% DMSO. […] To reduce the effects of ligand leakage from the syringe during baseline equilibration, the heat release of a single 1.2 μL injection was recorded prior to the actual titration experiment, and discarded during data analysis with Nitpic 2.0.7[45]. To determine background heats of dilution, control experiments of ligand into buffer, buffer into protein and buffer into buffer titrations were performed.

[1] = biological target: T2, murine PGP-WT / PGP-C297S (Mus musculus, UniProt Q8CHP8); experiment: Size-exclusion chromatography, PGP self-association; settings: SEC, PGP-WT 30 µM; CP1 100 µM
T2 construct: His6 (N, cleaved yes); made in house; host or cells: Escherichia coli BL21 (DE3)
T2 sequence (Q8CHP8 1-321): T1 sequence (Q8CHP8 1-321 P127E) with E127P
Protocol: (§1) A volume of 900 µL was loaded onto a Superdex 200 10/300GL (Cytiva) size exclusion chromatography column operated on an ÄKTA liquid chromatography system.
(§2) Error bars not shown are hidden by the symbols. (c) PGP self-association in the absence or presence of CP1. Size- exclusion chromatography (SEC) of purified, recombinant murine PGP-WT in comparison to PGP-C297 […]
(§3) (1 picture or pasted object on this page, not shown here)
(§4) (100 µM). SEC profiles of PGP -WT are the mean of n=3 independent experiments; PGP -C297S […]
(§5) independent experiments. Statistical testing was done using a two-sided t-test, and the p- value

[2] = biological target: T3, murine PGP-WT / PGP-C297S (Mus musculus, UniProt Q8CHP8, C297S); experiment: as above; settings: SEC; 100 µM CP1
T3 construct: His6 (N, cleaved yes); made in house; host or cells: Escherichia coli BL21 (DE3)
T3 sequence (Q8CHP8 1-321 C297S): T1 sequence (Q8CHP8 1-321 P127E) with E127P, C297S
Protocol: as §1, §2, §3, §4, §5

PGP^172FDPH>YDEQ = biological target: T4, PGP^172FDPH>YDEQ (Mus musculus, UniProt Q8CHP8, F172Y/H175Q/P174E); settings: read-out: enzyme activity in presence of CP1 relative to DMSO control (1), mPGP-172FDPH>172YDEQ
T4 sequence (Q8CHP8 1-321 F172Y/P174E/H175Q): T1 sequence (Q8CHP8 1-321 P127E) with E127P, F172Y, P174E, H175Q

murine PGP [3] = biological target: T5, murine PGP (Mus musculus, UniProt Q8CHP8); experiment: IC50 determination, murine PGP, 2-phospho-L-lactate (2PL) dephosphorylation; settings: for M.m PGP on 2- Phospho-L-lactate: activity, control = 100
T5 sequence (Q8CHP8 1-321): T1 sequence (Q8CHP8 1-321 P127E) with E127P

murine PGP [4] = biological target: T5, murine PGP; experiment: IC50 determination, murine PGP, 4-phosphoerythronate (4PE) dephosphorylation; settings: for M.m PGP on 4-Phosphoerythronate: activity, control = 100

## O=C(Nc1ccccc1C(=O)O)c1ccc(Oc2ccc(C(=O)Nc3ccccc3C(=O)O)cc2)cc1 [CP1]
Murine PGP-P127E
  n, stoichiometry: 1.15 ± 0.04
Murine PGP-P127E; […]
  Kd: 11.9 ± 0.41 µM
[1]
  max. peak height of PGP tetramer/PGP total: 0.166 and 0.138 and 0.1887
[2]
  effect on PGP^C297S self-association: did not affect
PGP^172FDPH>YDEQ; CP1 log[M] -4.80, Exp #1-#3
  remaining activity at 15.85 µM: 82%
PGP^172FDPH>YDEQ; CP1 log[M] -5.10, Exp #1-#3
  remaining activity at 7.943 µM: 88%
PGP^172FDPH>YDEQ; CP1 log[M] -5.40, Exp #1-#3
  remaining activity at 3.981 µM: 86%
PGP^172FDPH>YDEQ; CP1 log[M] -5.70, Exp #1-#3
  remaining activity at 1.995 µM: 98%
PGP^172FDPH>YDEQ; CP1 log[M] -6.00, Exp #2-#3
  remaining activity at 1 µM: 97%
PGP^172FDPH>YDEQ; CP1 log[M] -6.30, Exp #1-#3
  remaining activity at 0.5012 µM: 88%
PGP^172FDPH>YDEQ; CP1 log[M] -6.60, Exp #1-#3
  remaining activity at 0.2512 µM: 92%
PGP^172FDPH>YDEQ; CP1 log[M] -6.90, Exp #1-#3
  remaining activity at 0.1259 µM: 86%
Murine PGP [3]
  IC50: 0.31 ± 0.03 µM
Murine PGP [3]; CP1 log[M] -5.04576
  M.m PGP on 2- Phospho-L-lactate: 4.1667 and 4.9853 and 5.6548
Murine PGP [3]; CP1 log[M] -5.52288
  M.m PGP on 2- Phospho-L-lactate: 7.7778 and 8.7977 and 9.2262
Murine PGP [3]; CP1 log[M] -6
  M.m PGP on 2- Phospho-L-lactate: 23.0556 and 24.9267 and 23.8095
Murine PGP [3]; CP1 log[M] -6.47712
  M.m PGP on 2- Phospho-L-lactate: 45.5556 and 51.3196 and 45.8333
Murine PGP [3]; CP1 log[M] -6.95424
  M.m PGP on 2- Phospho-L-lactate: 73.3333 and 81.2317 and 78.869
Murine PGP [3]; CP1 log[M] -7.43136
  M.m PGP on 2- Phospho-L-lactate: 88.6111 and 95.3079 and 85.7143
Murine PGP [3]; CP1 log[M] -7.90849
  M.m PGP on 2- Phospho-L-lactate: 96.3889 and 100.293 and 92.8571
Murine PGP [4]
  IC50: 0.44 ± 0.06 µM
Murine PGP [4]; CP1 log[M] -5.34679
  M.m PGP on 4-Phosphoerythronate: 4.5082 and 7.8838 and 6.1475
Murine PGP [4]; CP1 log[M] -5.94885
  M.m PGP on 4-Phosphoerythronate: 24.5902 and 29.0456 and 23.7705
Murine PGP [4]; CP1 log[M] -6.24988
  M.m PGP on 4-Phosphoerythronate: 43.8525 and 48.1328 and 39.3443
Murine PGP [4]; CP1 log[M] -6.55091
  M.m PGP on 4-Phosphoerythronate: 54.0984 and 64.3154 and 65.9836
Murine PGP [4]; CP1 log[M] -6.85194
  M.m PGP on 4-Phosphoerythronate: 70.4918 and 82.5726 and 78.6885

Source: paper PMC9652372, “Glycolytic flux control by drugging phosphoglycolate phosphatase” (Nature Communications, 2022)
